# Experiments:
# [1] = Lipophilicity, shake-flask n-octanol/PBS pH 7.4; type: physicochemical; conditions: n-octanol/50 mM PBS pH 7.4, shake-flask, room temperature, at least six measurements
# Method: The partition coefficient between n-octanol and PBS at pH 7.4 (log P) was obtained by shake-flask technique at room temperature. In the shake flask experiments 50 mM PBS pH 7.4 was used as aqueous phase; the organic (n-octanol) and aqueous phase (PBS) were mutually saturated by shaking for 4 h. The compounds were solubilised in the buffered aqueous phase at a concentration of 30 μg/ml and appropriate amounts of n-octanol were added. The two phases were shaken for about 20 min, by which time the partitioning equilibrium of solutes is reached, and then centrifuged (10000 rpm, 10 min). The concentration of the solutes was measured in the aqueous phase by UV spectrophotometer (UV-2501PC, Shimadzu); the values of absorbance (223, 268 and 275 nm) were interpolated in calibration curves obtained using standard solutions of compounds (concentration range 30–0.5 μg/ml; r^2 > 0.99). Each log P-value is an average of at least six measurement.
# BEAS-2B cells [2] = assay: Cell viability (neutral red); type: cell-based, Human; conditions: for IC50: Homo sapiens, BEAS-2B normal bronchial epithelial cells, cell viability, CompuSyn; for cell viability: BEAS-2B, 0.1, 1 or 10 μM, 72 h
# From the text: (§1) Human colon cancer HT29 cells, colon-derived normal fibroblast CCD-18Co cells, lung cancer A549 cells, normal human bronchial epithelial (immortalized with adenovirus 12-SV40 virus hybrid Ad12SV40) BEAS-2B cells, breast cancer MDA-MB-231 cells, normal breast epithelial MCF10A cells, human osteosarcoma U-2OS cells were purchased from ATCC (Manassas, VA, United States). […] All subjects gave written informed consent in accordance with the Declaration of Helsinki. Cells were maintained in medium supplemented with 10% v/v fetal bovine serum, 1% v/v penicillin-streptomycin, 1% v/v L-glutamine. Morphological analysis was performed with a bright field microscope (Leica Microsystems, Wetzlar, Germany). At least 5 fields/experimental condition were examined.
# (§2) LDH activity was measured in the extracellular medium and in the cell lysate: 50 μl of extracellular medium or 5 μl of cell lysate were incubated at 37°C with 5 mM NADH. The reaction was started by adding 20 mM pyruvic acid and was monitored for 6 min, measuring absorbance at 340 nm using a Synergy HT Multi-Detection Microplate Reader (Bio-Tek Instruments, Winoosky, MT, United States). […] Both intracellular and extracellular enzyme activities were expressed as μmol NADH oxidized/min/dish. The results were expressed as percentage of extracellular LDH versus total (intracellular plus extracellular) LDH. […] The absorbance of untreated cells was considered as 100% viability; the results were expressed as percentage of viable cells versus untreated cells. IC50 was calculated with the CompuSyn software^1.
# BEAS-2B cells [3] = assay: Mitochondrial/cytosolic distribution by LC-ESI-MS; type: cell-based, Human; conditions: 4 h incubation with 0.1 and 1 μM
# Method: (§3) Mitochondria were isolated as reported ([Riganti et al., 2013a]). To isolate mitochondrial fractions, 5 × 10^6 cells were washed twice in ice-cold PBS, then lysed in 0.5 ml buffer A (50 mM Tris, 100 mM KCl, 5 mM MgCl2, 1.8 mM ATP, 1 mM EDTA; pH 7.2), supplemented with protease inhibitor cocktail III (Calbiochem. La Jolla, CA, United States), 1 mM phenylmethylsulfonyl fluoride and 250 mM NaF. Samples were clarified by centrifuging at 650 × g for 3 min at 4°C. The supernatant was collected and centrifuged at 13,000 × g for 5 min at 4°C. This supernatant, containing the cytosolic fraction, was stored at -80°C until the use. The pellet containing mitochondria was washed in 0.5 ml buffer A and re-suspended in 0.25 ml buffer B (250 mM sucrose, 15 mM K2HPO4, 2 mM MgCl2, 0.5 mM EDTA, 5% w/v, BSA). A 50 μl aliquot was sonicated and used for the measurement of protein content or Western blotting; the remaining part was stored at -80°C until the use. To confirm the presence of mitochondrial proteins in the extracts and the absence of cytosolic contamination in the mitochondrial fraction, 10 μg of each sonicated sample were subjected to SDS–PAGE and probed with an anti-porin antibody (Abcam, Cambridge, United Kingdom), a mitochondrial marker, and with an anti-glyceraldehyde 3-phosphate dehydrogenase antibody (GAPDH; Santa Cruz Biotechnology Inc., Santa Cruz, CA, United States), a cytosolic marker. Mitochondrial extracts were used only if they had detectable levels of porin and undetectable levels of GAPDH. To exclude any mitochondrial contamination in the cytosolic extracts, the absence of porin and the presence of GAPDH in the latter was analyzed by Western blotting (Supplementary Figure S1). Nuclear proteins were extracted using the Nuclear Extract Kit (Active Motif, La Hulpe, Belgium). 10 μg of nuclear extracts were subjected to SDS–PAGE and probed with antibodies against: proliferator-activated receptor gamma coactivator 1-α (PGC-1α; Abcam), an index of increased mitochondrial biogenesis ([Buondonno et al., 2016]), or TATA box Binding Protein (TBP; Santa Cruz Biotechnology Inc.), as control of equal protein loading.
# (§4) The amount of 1, 2, 15, and 16 in the mitochondrial and cytosolic fractions was determined by LC-ESI-MS analyses. LC-ESI-MS analyses were performed with an Acquity Ultra Performance LC^TM (Waters Corporation, Milford, MA, United States), equipped with BSM, SM, CM, and PDA detector. All the chromatographic separations were performed on a Zorbax Eclipse XDB-C18 (5 μm, 150 mm × 4.6 mm) (Agilent Technologies) as a stationary phase. The supernatant samples obtained from incubation were filtered through a 0.45 μm pore size PTFE membrane filter before use. Aliquots (5 μl) were injected onto the system and eluted with a mobile phase (flow rate, 0.5 ml/min) consisting of A, 0.1% formic acid solution, and B, acetonitrile. The following gradient was used: 0–5 min (A = 50%, B = 50%), 5–7 min (to A = 20%, B = 80%), 7–8 min (A = 20%, B = 80%), 8–10 min (to A = 50%, B = 50%). The eluate was injected into the electrospray ion source (ESI), and monitored using Micromass Quattro microTM API ESCi multi-mode ionization Enabled as detector. MS spectra were acquired and processed using MassLynx software. The operating conditions on the triple quadruple mass spectrometer were as follows: positive mode; drying gas (nitrogen) heated at 350°C at a flow rate of 800 l/h; nebulizer gas (nitrogen) at 80 l/h; capillary voltage in positive mode at 3000 V; cone voltage at 30 V. The molecular ion [M]^+ was employed for quantitative measurements of analytes. The values obtained from integration of the peak of compounds were interpolated in a calibration curve obtained using standard solutions at 0.01 to 5 μM. The amount of each compound in the mitochondrial and cytosolic fractions was expressed as pmol/mg proteins.
# (§5) FIGURE 5 Intra-mitochondrial and cytosolic accumulation of TPP-derivatives. […]
# A549 cells [4] = assay: Mitochondrial/cytosolic distribution by LC-ESI-MS; type: cell-based, Human; conditions: for intracellular hydrolysis of the ester to the parent phenol: 4 h incubation, 0.1 and 1 μM; for penetration into cells / intracellular concentration after direct incubation: A549, 4 h incubation with 0.1 and 1 μM; for mitochondrial vs cytosolic distribution after incubation with 2: 4 h incubation with 0.1 and 1 μM of 2; for cytosolic concentration of 15 after incubation with 1: cytosolic fraction
# Method: as §3, §4, §5
# A549 cells [5] = assay: Cell viability (neutral red); type: cell-based, Human; conditions: for IC50: cell viability, CompuSyn; for cell viability: A549, 0.1, 1 or 10 μM, 72 h
# From the text: as §1, §2
intracellular concentration after direct incubation (BEAS-2B cells [3]),cytosolic concentration of 15 after incubation with 1 (A549 cells [4]; 4 h incubation with 0.1 μM of 1),"mitochondrial accumulation of 15 after incubation with 1 (A549 cells [4]; 4 h incubation with 0.1 μM of 1, mitochondrial fraction)",cytosolic concentration of 15 after incubation with 1 (A549 cells [4]; 4 h incubation with 1 μM of 1),intracellular concentration after direct incubation (A549 cells [4]),SMILES,logP [1],IC50 (BEAS-2B cells [2]),concentration in BEAS-2B cells compared with A549 cells (BEAS-2B cells [3]),intracellular hydrolysis of the ester to the parent phenol (A549 cells [4]),penetration into cells (A549 cells [4]),IC50 (A549 cells [5]; A549 lung cancer cells),"IC50 (A549 cells [5]; Homo sapiens, A549, A549 lung cancer cells)",mitochondrial vs cytosolic distribution after incubation with 2 (A549 cells [4]),cell viability (BEAS-2B cells [2]),cell viability (A549 cells [5])
,,,,,CC(=O)Oc1ccc(C[P+](c2ccccc2)(c2ccccc2)c2ccccc2)cc1.[Br-] [Compound 1],0.64,5.26 ± 0.25 µM,at least ten fold lower,fast hydrolysis into phenol 15,penetrate in good extent,,,,,
,,,,,O=C(Oc1ccc(C[P+](c2ccccc2)(c2ccccc2)c2ccccc2)cc1C(F)(F)F)c1ccccc1.[Br-] [Compound 2],3.15,7.36 ± 0.45 µM,at least ten fold lower,more stable with respect to acetate,penetrate in good extent,0.55 ± 0.07 µM,< 1 µM,accumulate almost exclusively at mitochondrial level,,
very low,below detection limit,easily detectable,very low,very low,Oc1ccc(C[P+](c2ccccc2)(c2ccccc2)c2ccccc2)cc1.[Br-] [Compound 15],0.5,,,,,,,,nor reduced cell viability,nor reduced cell viability
very low,,,,very low,Oc1ccc(C[P+](c2ccccc2)(c2ccccc2)c2ccccc2)cc1C(F)(F)F.[Br-] [Compound 16],1.02,,,,,,,accumulate almost exclusively at mitochondrial level,nor reduced cell viability,nor reduced cell viability

# From publication PMC5994430, “Mitochondrial Delivery of Phenol Substructure Triggers Mitochondrial Depolarization and Apoptosis of Cancer Cells” (Frontiers in Pharmacology, 2018)
